In ChEMBL document CHEMBL4609983, “Pan-specific and partially selective dye-labeled peptidic inhibitors of the polycomb paralog proteins” (Bioorg Med Chem, 2020):
One block for each molecule: values may come before it. Non-standard residues stand in square brackets, D forms with d. Residues, ends and D or L forms follow the SMILES beside them. *: point of attachment. X1 = O=C(O)c1cc(NC(=S)*)ccc1-c1c2ccc(=O)cc-2oc2cc(O)ccc12; Lys(Me3) = C[N+](C)(C)CCCC[C@H](N)C(=O)O; Benzoyl(4-Br) = O=C(c1ccc(Br)cc1)*; Gly(cPent) = N[C@H](C(=O)O)C1CCCC1; Abu = CC[C@H](N)C(=O)O; βAla = NCCC(=O)O

Tests used:
[1] = biological target: T1, Chromobox protein homolog 6 (Homo sapiens, UniProt O95503); test: Inhibition of CBX6 (unknown origin) assessed as […] by competitive FP assay
T1 sequence (O95503 whole entry): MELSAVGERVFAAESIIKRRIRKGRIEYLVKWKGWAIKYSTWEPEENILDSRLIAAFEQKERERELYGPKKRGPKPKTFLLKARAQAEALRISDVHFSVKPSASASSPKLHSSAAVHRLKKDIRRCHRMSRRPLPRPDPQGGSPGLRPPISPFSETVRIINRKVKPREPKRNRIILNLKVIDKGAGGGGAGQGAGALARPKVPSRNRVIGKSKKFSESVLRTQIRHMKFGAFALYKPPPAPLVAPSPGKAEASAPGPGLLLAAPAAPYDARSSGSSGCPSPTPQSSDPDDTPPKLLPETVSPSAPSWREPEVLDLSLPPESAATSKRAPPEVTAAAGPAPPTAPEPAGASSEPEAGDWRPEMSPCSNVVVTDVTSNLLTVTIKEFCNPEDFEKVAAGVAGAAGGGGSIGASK

Homo sapiens [2] = organism: Homo sapiens; test: Selectivity ratio of IC50 for CBX7 (unknown origin) to IC50 for CBX8 (unknown origin)
[3] = biological target: T2, Chromobox protein homolog 8 (Homo sapiens, UniProt Q9HC52); test: Inhibition of CBX8 (unknown origin) assessed as […] by competitive FP assay
T2 sequence (Q9HC52 whole entry): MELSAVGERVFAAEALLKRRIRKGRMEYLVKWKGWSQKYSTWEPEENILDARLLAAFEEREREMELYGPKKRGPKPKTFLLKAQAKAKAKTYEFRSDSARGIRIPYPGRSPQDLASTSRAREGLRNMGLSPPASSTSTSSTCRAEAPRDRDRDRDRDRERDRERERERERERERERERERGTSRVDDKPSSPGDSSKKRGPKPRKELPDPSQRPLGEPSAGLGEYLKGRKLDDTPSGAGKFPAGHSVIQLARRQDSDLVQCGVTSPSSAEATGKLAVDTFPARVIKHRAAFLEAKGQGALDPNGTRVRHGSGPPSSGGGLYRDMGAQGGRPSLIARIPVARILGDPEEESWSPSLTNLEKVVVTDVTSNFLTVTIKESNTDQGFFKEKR

[4] = biological target: T3, Chromobox protein homolog 7 (Homo sapiens, UniProt O95931); test: Inhibition of CBX7 (unknown origin) assessed as […] by competitive FP assay
T3 sequence (O95931 whole entry): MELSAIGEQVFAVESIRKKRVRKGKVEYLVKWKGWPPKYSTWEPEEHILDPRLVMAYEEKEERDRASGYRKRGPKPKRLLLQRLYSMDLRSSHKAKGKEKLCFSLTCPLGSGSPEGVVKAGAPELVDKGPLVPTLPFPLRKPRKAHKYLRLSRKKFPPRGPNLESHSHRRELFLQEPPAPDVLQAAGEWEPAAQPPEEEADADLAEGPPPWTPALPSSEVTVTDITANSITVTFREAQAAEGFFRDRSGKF

Homo sapiens [5] = organism: Homo sapiens; test: Selectivity ratio of IC50 for CBX4 (unknown origin) to IC50 for CBX7 (unknown origin)
[6] = Drug uptake in cytoplasm of human TOV21G cells by live cell imaging analysis; format: ADME, cell-based
[7] = Drug uptake in nucleus of human TOV21G cells by live cell imaging analysis; format: ADME, cell-based
[8] = biological target: T4, Chromobox protein homolog 2 (Homo sapiens, UniProt Q14781); test: Binding affinity to CBX2 (unknown origin) assessed as dissociation constant by fluorescence polarization analysis
T4 sequence (Q14781 whole entry): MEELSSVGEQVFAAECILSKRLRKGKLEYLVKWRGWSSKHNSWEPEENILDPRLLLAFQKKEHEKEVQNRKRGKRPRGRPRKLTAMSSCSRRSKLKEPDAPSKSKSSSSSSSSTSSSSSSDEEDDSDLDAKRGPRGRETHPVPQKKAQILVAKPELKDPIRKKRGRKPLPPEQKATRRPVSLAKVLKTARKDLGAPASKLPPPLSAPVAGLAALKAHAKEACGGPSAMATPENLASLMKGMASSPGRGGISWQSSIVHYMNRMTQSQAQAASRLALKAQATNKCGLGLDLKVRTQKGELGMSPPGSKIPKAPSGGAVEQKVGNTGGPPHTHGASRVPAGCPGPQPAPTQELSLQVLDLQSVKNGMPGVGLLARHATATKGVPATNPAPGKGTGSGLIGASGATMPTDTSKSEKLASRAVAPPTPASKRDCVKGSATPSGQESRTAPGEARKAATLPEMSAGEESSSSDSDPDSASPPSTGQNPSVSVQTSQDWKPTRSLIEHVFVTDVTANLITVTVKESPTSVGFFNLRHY

[9] = biological target: T2, Chromobox protein homolog 8; test: Binding affinity to CBX8 (unknown origin) assessed as dissociation constant by fluorescence polarization analysis
[10] = biological target: T5, E3 SUMO-protein ligase CBX4 (Homo sapiens, UniProt O00257); test: Binding affinity to CBX4 (unknown origin) assessed as dissociation constant by fluorescence polarization analysis
T5 sequence (O00257 whole entry): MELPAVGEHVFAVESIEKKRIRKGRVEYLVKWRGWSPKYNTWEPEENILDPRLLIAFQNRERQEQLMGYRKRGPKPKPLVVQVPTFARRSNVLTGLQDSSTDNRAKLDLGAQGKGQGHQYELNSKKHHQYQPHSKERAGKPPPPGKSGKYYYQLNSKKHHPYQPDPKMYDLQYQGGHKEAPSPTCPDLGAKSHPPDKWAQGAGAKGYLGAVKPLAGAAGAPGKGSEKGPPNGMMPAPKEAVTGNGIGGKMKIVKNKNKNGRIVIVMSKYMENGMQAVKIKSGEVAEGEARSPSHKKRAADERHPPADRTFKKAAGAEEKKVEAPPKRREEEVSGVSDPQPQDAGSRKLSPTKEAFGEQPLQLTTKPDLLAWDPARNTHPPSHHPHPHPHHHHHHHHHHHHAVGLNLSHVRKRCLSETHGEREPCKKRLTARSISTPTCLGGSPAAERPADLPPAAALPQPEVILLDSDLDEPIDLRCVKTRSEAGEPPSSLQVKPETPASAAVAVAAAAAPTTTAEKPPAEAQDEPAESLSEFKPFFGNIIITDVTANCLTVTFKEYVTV

[11] = biological target: Chromobox protein homolog 1 (Homo sapiens, UniProt P83916); test: Binding affinity to CBX1 (unknown origin) assessed as dissociation constant by fluorescence polarization analysis
[12] = Drug uptake in human TOV21G cells assessed as endosomal entrapment by measuring characteristic punctate dots in the cytoplasm at 10 uM by cell imaging analysis; format: ADME, cell-based
TOV21G [13] = test: Effect on cell cycle in human TOV21G cells by measuring cells distribution at G1 phase; format: cell-based
[14] = Drug uptake in nucleus of human PC3 cells by live cell imaging analysis; format: ADME, cell-based; settings: pc-3
[15] = Drug uptake in human TOV21G cells by flow cytometric analysis; format: ADME, cell-based
TOV21G [16] = test: Effect on cell cycle in human TOV21G cells by measuring cells distribution at G0 phase; format: cell-based
TOV21G [17] = test: Effect on cell cycle in human TOV21G cells by measuring cells distribution at G2/M phase; format: cell-based
[18] = biological target: T3, Chromobox protein homolog 7; test: Binding affinity to CBX7 (unknown origin) assessed as dissociation constant by fluorescence polarization analysis
[19] = biological target: T1, Chromobox protein homolog 6; test: Binding affinity to CBX6 (unknown origin) assessed as dissociation constant by fluorescence polarization analysis
[20] = Drug uptake in human PC3 cells assessed as endosomal entrapment by measuring characteristic punctate dots in the cytoplasm at 10 uM by cell imaging analysis; format: ADME, cell-based; settings: pc-3, 10 µM
[21] = Drug uptake in cytoplasm of human PC3 cells by live cell imaging analysis; format: ADME, cell-based; settings: pc-3
TOV21G [22] = test: Effect on cell cycle in human TOV21G cells by measuring cells distribution at S phase; format: cell-based

Sequence of Chromobox protein homolog 1 (P83916 whole entry): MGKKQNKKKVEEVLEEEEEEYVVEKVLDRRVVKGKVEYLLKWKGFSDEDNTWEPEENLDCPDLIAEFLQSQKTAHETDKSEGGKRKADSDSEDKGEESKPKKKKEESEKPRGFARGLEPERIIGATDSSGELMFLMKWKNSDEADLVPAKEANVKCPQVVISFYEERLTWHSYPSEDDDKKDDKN

IC50 [1]: 2.8 µM
Ratio IC50 (Homo sapiens [2]): 2
IC50 [3]: 3.8 µM
IC50 [4]: 8.3 µM
Ratio IC50 (Homo sapiens [5]): 10
SMILES: CC[C@H](NC(=O)[C@H](Cc1ccccc1)NC(=O)c1ccc(Br)cc1)C(=O)N[C@H](C(=O)N[C@@H](CCCC[N+](C)(C)C)C(=O)N[C@@H](CO)C(=O)N[C@@H](CCC(=O)O)C(N)=O)C1CCCC1 ({Benzoyl(4-Br)}-F[Abu][Gly(cPent)][Lys(Me3)]SE-NH2)

Drug uptake [6]: Not Active
Drug uptake [7]: Not Active
Kd [8]: 3.1 µM
Kd [9]: 1.7 µM
Kd [10]: 1.7 µM
Kd [11]: 47 µM
Drug uptake [12]: Active
Drug uptake [14]: Not Active
Drug uptake [15]: Active
Kd [18]: 1.6 µM
Kd [19]: 1.1 µM
Drug uptake [20]: Active
Drug uptake [21]: Not Active
SMILES: CC(C)C[C@H](NC(=O)[C@H](C)NC(=O)[C@H](Cc1ccccc1)NC(=O)[C@H](Cc1ccccc1)NC(=O)CCNC(=S)Nc1ccc(-c2c3ccc(=O)cc-3oc3cc(O)ccc23)c(C(=O)O)c1)C(=O)N[C@@H](CCCC[N+](C)(C)C)C(=O)N[C@@H](CO)C(N)=O ({X1-βAla}-FFAL[Lys(Me3)]S-NH2)
Activity (TOV21G [13]): Non-Toxic
Activity (TOV21G [16]): Non-Toxic
Activity (TOV21G [17]): Non-Toxic
Activity (TOV21G [22]): Non-Toxic
